Values quoted from earlier work as cited in patent US20250288673A1, “GENE THERAPY FOR THE TREATMENT OF ACTIVATED PI3KINASE DELTA SYNDROME TYPE 1 (APDS1)” (Cellectis SA, priority 2022, published 2025).

How the values were obtained:
[1] = after administration; cited from earlier work
PI3Kδ = conditions: APDS1 treatment; cited from earlier work

Compound | side effects outside of the immune system [1] | effect on lymphadenopathy and immune B cell subpopulations (PI3Kδ)
CO[C@H]1C[C@@H]2CC[C@@H](C)[C@@](O)(O2)C(=O)C(=O)N2CCCC[C@H]2C(=O)O[C@H]([C@H](C)C[C@@H]2CC[C@@H](O)[C@H](OC)C2)CC(=O)[C@H](C)/C=C(\C)[C@@H](O)[C@@H](OC)C(=O)[C@H](C)C[C@H](C)/C=C/C=C/C=C/1C [Rapamycin] | proteinuria was observed | 
[O-][n+]1cccc(-c2nc3c(Cl)cccc3cc2[C@@H](Nc2ncnc3cccnc23)C(F)(F)F)c1 [Seletalisib] | liver toxicity | reduction in lymphadenopathy and normalization of immune B cell subpopulations
